According to patent US20240024379A1, “EXTRACT OF BACTERIA OF THE GENUS SPHINGOMONAS” (L’OREAL, priority 2020, published 2024):
Where “and” joins values, the source holds several entries; their conditions need not be identical. Identical values can stand only once.

Experiments:
Assay type in all cases: cell-based
[1] = tested on: IgE production by human B lymphocytes; assay: IgE production by human B lymphocytes stimulated with anti-CD40 and IL-4, ELISA; conditions: Anti CD-40 10 μg/ml + IL-4 10 ng/ml, 14 days; for IgE: single replicates
Description: In the study, the effect of the extract has been assessed on the IgE production by purified human B lymphocytes (isolation of the CD19^+ lymphocytes from mononuclear cells of the peripheral blood). More specifically, the IgE production has been induced by the stimulation of the B lymphocytes with the combination of anti-CD40 antibody and of IL-4. After 14 days of incubation, the amount of IgE released in the culture supernatants has been quantified using a specific ELISA kit. Concomitantly with the tested extract, 3 other molecules have also been assessed in this test. the reference standard CpG-ODN 2006 (a TLR9 ligand), as well as IFN-γ and PGE2 have been tested as reference compounds.
The B lymphocytes CD19^+ have been isolated, sown in 24-well plates and incubated over one night in the culture medium. Afterwards, the compounds to be tested, tested alone or in combination, and the reference compounds have been added, or not (controls), and the cells have been pre-incubated for 2 hours. Afterwards, the inducer (a CD40+IL-4 combination) has been added, or not (unstimulated control) and the treatments with the test or the reference compounds have been repeated. Afterwards, the cells have been incubated for 14 days at a final density of 1.7×10^6 cells/ml). […]
The amount of IgE released in the culture supernatants has been measured using a specific ELISA kit according to the instructions of the supplier.

[2] = target: T1, hTLR2 (Homo sapiens, UniProt O60603); assay: TLR reporter (SEAP/NFkB) test on HEK293 cell line with hTLR2
T1 construct: host or cells: HEK-293
Description: (§1) The extract and the controls are tested in duplicate on recombinant HEK-293 cell lines. These cell lines functionally over-express human TLR proteins as well as a reporter gene that is a secreted alkaline phosphatase (SEAP). The production of this reporter gene is governed by an NFkB inducible promoter. The results of activation of the TLR reporters are given in the form of optical density (OD) values.
(§2) CU-T12-9 and FSL-1 are used on the cells expressing hTLR2 to respectively assess the TLR1/TLR2 and TLR2/TLR6 activities.
(§3) […] CU-T12-9 is tested at 200 nM and 300 nM.
(§4) 20 μl of the extract have been used to stimulate the reporter hTLR cell line in 200 μl of reaction volume. For the dose-response on the HEK-Blue-hTLR5 cell lines, the liquid extract obtained according to Example 1 has been tested in duplicate, at the following concentrations: 1000 μg/ml, 500 μg/ml, 250 μg/ml, 125 μg/ml, 62.5 μg/ml, 31.5 μg/ml. For the TLR1/2 and/or TLR2/6 specificity, the liquid extract obtained according to Example 1 has been tested in duplicate at the following concentrations: 100 μg/ml, 30 μg/ml and 10 μg/ml.

[3] = target: T2, hTLR2-1 (Homo sapiens, UniProt O60603+Q15399); assay: TLR reporter (SEAP/NFkB) test on HEK293 cell line with hTLR2-1
T2 construct: host or cells: HEK-293
Description: as §1, §2, §3
20 μl of the extract have been used to stimulate the reporter hTLR cell line in 200 μl of reaction volume. For the dose-response on the HEK-Blue-hTLR5 cell lines, the liquid extract obtained according to Example 1 has been tested in duplicate, at the following concentrations: 1000 μg/ml, 500 μg/ml, 250 μg/ml, 125 μg/ml, 62.5 μg/ml, 31.5 μg/ml. […]

[4] = target: T3, hTLR2-6 (Homo sapiens, UniProt O60603+Q9Y2C9); assay: TLR reporter (SEAP/NFkB) test on HEK293 cell line with hTLR2-6
T3 construct: host or cells: HEK-293
Description: as §1, §2, §3, §4

[5] = tested on: Zonula Occludens-1; assay: Gene expression by RT-qPCR in normal human epidermal keratinocytes, Zonula Occludens-1; conditions: NHEK, 24 hours; 1.00E−07 M, DMSO
Description: (§5) Normal human epidermal keratinocytes (NHEK) have been sown in 48-well culture plates and then cultured in a culture medium for 3 days at 37° C. and 5% of CO2 with a renewal of the culture medium after first 24 hours of culture. At the end of the incubation, the culture medium has been replaced with a test medium (supplemented with 1.5 mM of CaCl2)) containing no (control) or containing the compounds to be tested, and the cells has then been incubated for 24 hours. All conditions have been carried out in duplicate. At the end of the treatments, the culture media have been eliminated and the cells have been rinsed twice with PBS (without CaCl2, without MgCl2). Afterwards, the total RNA has been isolated using an extraction kit. The quantification of RNA and its quality control have been analyzed by means of Labchip GX (Perkin Elmer). The expression of the selected transcripts has been analyzed by quantitative PCR in two steps. First of all, the cDNAs have been transcribed in the opposite direction from the RNAs. Afterwards, the quantitative PCR experiments have been carried out using a real-time PCR system. […] The RNAs are extracted, quantified and their quality is checked before performing their reverse transcription into cDNA. Finally, an RT-qPCR is carried out for each experimental condition in order to quantify the expression of the set of selected genes.

[6] = tested on: Cornifelin; assay: Gene expression by RT-qPCR in normal human epidermal keratinocytes, Cornifelin; conditions: NHEK, 24 hours; 1.00E−07 M, DMSO
Description: as §5

[7] = tested on: Claudin 1; assay: Gene expression by RT-qPCR in normal human epidermal keratinocytes, Claudin 1; conditions: NHEK, 24 hours; 1.00E−07 M, DMSO
Description: as §5

T2 sequence (O60603 21-784): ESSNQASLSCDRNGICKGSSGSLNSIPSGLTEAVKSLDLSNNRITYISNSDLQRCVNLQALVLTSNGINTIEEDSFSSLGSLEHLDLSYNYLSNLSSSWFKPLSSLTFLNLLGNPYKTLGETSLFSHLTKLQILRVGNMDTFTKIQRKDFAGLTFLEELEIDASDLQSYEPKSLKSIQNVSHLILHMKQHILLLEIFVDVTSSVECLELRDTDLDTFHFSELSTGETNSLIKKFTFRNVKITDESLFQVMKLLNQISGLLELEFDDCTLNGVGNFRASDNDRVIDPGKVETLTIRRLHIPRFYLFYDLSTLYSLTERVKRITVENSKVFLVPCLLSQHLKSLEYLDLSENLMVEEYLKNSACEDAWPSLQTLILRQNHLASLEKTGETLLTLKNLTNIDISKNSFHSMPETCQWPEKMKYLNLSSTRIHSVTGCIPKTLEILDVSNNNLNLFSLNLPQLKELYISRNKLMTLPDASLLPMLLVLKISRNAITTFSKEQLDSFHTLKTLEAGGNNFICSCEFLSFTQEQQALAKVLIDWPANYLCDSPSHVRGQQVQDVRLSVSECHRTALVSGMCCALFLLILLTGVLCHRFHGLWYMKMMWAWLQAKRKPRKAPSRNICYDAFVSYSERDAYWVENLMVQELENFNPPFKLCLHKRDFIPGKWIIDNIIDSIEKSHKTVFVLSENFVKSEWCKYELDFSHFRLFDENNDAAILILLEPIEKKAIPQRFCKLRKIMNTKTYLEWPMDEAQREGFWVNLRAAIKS
T2 sequence (Q15399 25-786): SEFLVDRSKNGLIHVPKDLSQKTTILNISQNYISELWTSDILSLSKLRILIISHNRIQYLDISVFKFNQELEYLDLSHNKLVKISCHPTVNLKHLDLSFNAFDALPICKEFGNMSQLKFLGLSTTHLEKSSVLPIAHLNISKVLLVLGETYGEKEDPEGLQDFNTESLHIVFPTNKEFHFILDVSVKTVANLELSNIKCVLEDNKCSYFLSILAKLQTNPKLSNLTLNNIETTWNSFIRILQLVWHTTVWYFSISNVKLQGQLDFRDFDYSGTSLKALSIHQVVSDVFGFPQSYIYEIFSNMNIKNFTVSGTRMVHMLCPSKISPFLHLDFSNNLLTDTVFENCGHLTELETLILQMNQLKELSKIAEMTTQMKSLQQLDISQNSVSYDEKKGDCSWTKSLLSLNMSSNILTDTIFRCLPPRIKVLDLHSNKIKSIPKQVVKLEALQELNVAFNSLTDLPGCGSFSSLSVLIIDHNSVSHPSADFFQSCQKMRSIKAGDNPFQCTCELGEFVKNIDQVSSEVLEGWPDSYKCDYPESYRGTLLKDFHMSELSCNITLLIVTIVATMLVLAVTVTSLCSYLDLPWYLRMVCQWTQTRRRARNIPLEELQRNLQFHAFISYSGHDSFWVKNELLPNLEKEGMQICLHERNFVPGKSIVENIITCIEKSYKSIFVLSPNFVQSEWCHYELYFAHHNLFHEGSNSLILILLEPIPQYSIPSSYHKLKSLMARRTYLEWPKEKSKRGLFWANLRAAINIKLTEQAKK
T3 sequence (O60603 21-784): as the sequence (O60603 21-784) above
T3 sequence (Q9Y2C9 32-796): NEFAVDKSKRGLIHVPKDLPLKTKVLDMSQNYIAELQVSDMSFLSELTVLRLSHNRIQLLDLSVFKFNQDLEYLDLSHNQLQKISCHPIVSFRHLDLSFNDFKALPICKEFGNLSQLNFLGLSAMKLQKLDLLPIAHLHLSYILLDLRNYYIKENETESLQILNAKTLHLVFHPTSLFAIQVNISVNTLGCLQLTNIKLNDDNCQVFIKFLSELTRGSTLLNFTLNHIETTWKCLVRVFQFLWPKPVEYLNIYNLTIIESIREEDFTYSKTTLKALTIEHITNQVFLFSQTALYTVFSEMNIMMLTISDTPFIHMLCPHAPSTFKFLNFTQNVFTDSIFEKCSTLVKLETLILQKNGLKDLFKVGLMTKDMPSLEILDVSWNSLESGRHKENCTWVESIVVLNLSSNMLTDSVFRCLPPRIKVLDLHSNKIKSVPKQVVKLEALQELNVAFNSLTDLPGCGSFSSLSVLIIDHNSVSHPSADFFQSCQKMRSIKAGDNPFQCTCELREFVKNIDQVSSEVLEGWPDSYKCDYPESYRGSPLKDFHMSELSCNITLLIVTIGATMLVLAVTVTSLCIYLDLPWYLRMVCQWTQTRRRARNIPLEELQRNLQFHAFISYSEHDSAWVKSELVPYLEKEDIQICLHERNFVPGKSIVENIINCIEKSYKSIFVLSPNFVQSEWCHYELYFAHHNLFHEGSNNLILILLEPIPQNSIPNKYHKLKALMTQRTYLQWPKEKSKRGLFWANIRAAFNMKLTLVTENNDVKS
T1 sequence (O60603 21-784): as the sequence (O60603 21-784) above

CpG-ODN 2006
IgE % of the stimulated control ([1]; 3 μM): <3%
IgE Mean ([1]; 3 μM): <123 pg/mL
IgE % of the stimulated control ([1]; 3 μM, listed as CpG-ODN2006): < 3%
IgE ([1]; 3 μM): <123 pg/mL

CCCCC[C@H](O)/C=C/[C@H]1[C@H](O)CC(=O)[C@@H]1C/C=C\CCCC(=O)O [PGE2]
IgE % of the stimulated control ([1]; 1 μM): 58%
IgE Mean ([1]; 1 μM): 2126 pg/mL
IgE ([1]; 1 μM): 2942 pg/mL and 1495 pg/mL and 1941 pg/mL

CNc1ccc([N+](=O)[O-])cc1-n1cnc(-c2ccc(C(F)(F)F)cc2)c1 [CUT12-9]
DO ([2]; 200 nM): 3.066
DO ([2]; 300 nM): 3.227
DO ([3]; 200 nM): 1.474
DO ([3]; 300 nM): 1.667
DO ([4]; 200 nM): 0.029
DO ([4]; 300 nM): 0.024

FSL1
DO ([2]; 10 pg/ml): 1.727
DO ([2]; 30 pg/ml): 2.174
DO ([3]; 10 pg/ml): 0.027
DO ([3]; 30 pg/ml): 0.013
DO ([4]; 10 pg/ml): 1.373
DO ([4]; 30 pg/ml): 2.047

IFN-γ: reference compound, R&D Systems, ref. 285-IF-100/CF
IgE % of the stimulated control ([1]; 10 ng/ml): 20%
IgE Mean ([1]; 10 ng/ml): 738 pg/mL
IgE ([1]; 10 ng/ml): 1012 pg/mL and 166 pg/mL and 1036 pg/mL

CC1=C(/C=C/C(C)=C/C=C/C(C)=C/CO)C(C)(C)CCC1 [Retinol]
Average expression of the genes, Zonula Occludens-1 [5]: 1.61
Average expression of the genes, Cornifelin [6]: 0.77
Average expression of the genes, Claudin 1 [7]: 0.63
